Data taken from paper PMC7044277 (Nature Communications, 2020).
“And” between values parts separate entries of the source, which are not always exact repeats. Equal values may be shown once. One block for each molecule: values may come before it.

Columns and labels:
DRD4 (D4.4 variant) [1] = target: T1, DRD4 (D4.4 variant) (Homo sapiens, UniProt P21917); assay: β-arrestin2 recruitment (Tango); format: cell-based; conditions: DRD4; Tango; read-out: EC50 ± SEM
T1 sequence (P21917 1-419): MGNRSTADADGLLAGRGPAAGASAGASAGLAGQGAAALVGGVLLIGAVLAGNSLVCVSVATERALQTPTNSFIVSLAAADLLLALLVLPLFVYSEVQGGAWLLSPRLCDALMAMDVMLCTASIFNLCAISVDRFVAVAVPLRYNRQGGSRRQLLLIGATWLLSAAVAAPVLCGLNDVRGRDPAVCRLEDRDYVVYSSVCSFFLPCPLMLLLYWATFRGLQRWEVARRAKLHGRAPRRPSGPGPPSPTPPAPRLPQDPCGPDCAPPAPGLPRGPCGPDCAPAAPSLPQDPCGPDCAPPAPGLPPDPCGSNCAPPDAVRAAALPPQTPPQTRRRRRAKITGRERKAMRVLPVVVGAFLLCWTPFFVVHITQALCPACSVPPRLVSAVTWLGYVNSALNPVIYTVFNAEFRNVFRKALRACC

DRD2 (D2 long receptor) [2] = target: T2, DRD2 (D2 long receptor) (Homo sapiens, UniProt P14416); assay: β-arrestin2 recruitment (Tango), HTLA cells; format: cell-based; conditions: for EC50 / Emax relative to quinpirole response: DRD2; for EC50: β-arrestin2 recruitment (Tango), read-out: EC50 ± SEM; for Emax relative to quinpirole response: Tango; for Response, Fig_S11c dose-response: individual replicates
T2 sequence (P14416 whole entry): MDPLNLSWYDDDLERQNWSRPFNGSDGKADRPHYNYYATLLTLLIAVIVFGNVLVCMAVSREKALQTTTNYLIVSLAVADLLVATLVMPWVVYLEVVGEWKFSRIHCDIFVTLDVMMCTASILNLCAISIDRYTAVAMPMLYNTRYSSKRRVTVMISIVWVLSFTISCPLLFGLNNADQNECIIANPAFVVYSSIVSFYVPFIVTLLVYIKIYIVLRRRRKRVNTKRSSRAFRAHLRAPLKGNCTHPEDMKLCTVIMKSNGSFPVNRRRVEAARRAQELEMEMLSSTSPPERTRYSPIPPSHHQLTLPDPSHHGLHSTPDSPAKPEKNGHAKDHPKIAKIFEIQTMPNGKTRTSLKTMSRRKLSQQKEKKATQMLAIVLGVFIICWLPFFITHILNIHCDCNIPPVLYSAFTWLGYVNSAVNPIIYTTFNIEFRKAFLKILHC

[3] = target: DRD2 (D2 long receptor) wild-type (Homo sapiens, UniProt P14416); assay: Radioligand competition binding, [3H]-N-methylspiperone, HEK293T membranes; conditions: for Ki: DRD2, [3H]-methylspiperone (0.8-1.0 nM), read-out: Ki
Sequence of DRD2 (D2 long receptor) wild-type (P14416 whole entry): as above

DRD2 (D2 long receptor) [4] = target: T2, DRD2 (D2 long receptor); assay: Gαi/o-mediated cAMP inhibition (GloSensor split-luciferase cAMP reporter), HEK293T; format: cell-based; conditions: for EC50: agonist, Gαi/o-mediated cAMP inhibition, read-out: EC50 ± SEM; for Response, Fig_S11b dose-response: individual replicates;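 on all read-outs here: compounds applied 15 min at room temperature, then luciferin plus 400 nM isoproterenol to raise cAMP through endogenous β2-adrenergic receptors, luminescence read 15 min later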
[5] = target: T3, DRD4 (D4.4 variant) wild-type (Homo sapiens, UniProt P21917); assay: Radioligand competition binding, [3H]-N-methylspiperone; conditions: DRD4; [3H]-methylspiperone (0.8-1.0 nM); read-out: Ki
T3 sequence (P21917 1-419): T1 sequence (P21917 1-419)

DRD3 F1063.28A [6] = target: T4, DRD3 F1063.28A (Homo sapiens, UniProt P35462, F106A); assay: biochemical; format: binding; conditions: DRD3 F1063.28A; read-out: Ki
T4 sequence (P35462 whole entry F106A): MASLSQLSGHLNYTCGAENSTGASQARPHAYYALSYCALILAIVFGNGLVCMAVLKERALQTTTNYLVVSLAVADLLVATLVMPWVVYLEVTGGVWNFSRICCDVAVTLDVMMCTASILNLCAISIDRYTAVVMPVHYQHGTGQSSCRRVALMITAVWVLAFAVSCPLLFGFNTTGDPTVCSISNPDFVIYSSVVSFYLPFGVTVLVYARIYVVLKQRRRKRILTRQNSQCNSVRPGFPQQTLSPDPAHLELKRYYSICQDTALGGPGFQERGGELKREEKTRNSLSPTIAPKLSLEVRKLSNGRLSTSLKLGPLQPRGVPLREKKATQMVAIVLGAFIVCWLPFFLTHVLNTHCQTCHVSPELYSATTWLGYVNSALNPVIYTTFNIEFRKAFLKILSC

DRD3 wild-type = DRD3 wild-type (Homo sapiens, UniProt P35462); assay: Radioligand competition binding, [3H]-N-methylspiperone; conditions: for Ki: DRD3, [3H]-methylspiperone (0.8-1.0 nM), read-out: Ki; for pKi ± SEM: DRD3 wild-type
Sequence of DRD3 wild-type (P35462 whole entry): as the sequence (P35462 whole entry F106A) above, with A106F counted along it

DRD3 = DRD3 (Homo sapiens, UniProt P35462); assay: β-arrestin2 recruitment (Tango); format: cell-based; conditions: DRD3; Tango; read-out: EC50 ± SEM
Sequence of DRD3 (P35462 whole entry): as the sequence (P35462 whole entry F106A) above, with A106F counted along it

DRD2 F1103.28A [7] = target: T5, DRD2 F1103.28A (Homo sapiens, UniProt P14416, F110A); format: binding; design: expressed in transfected cells; host or cells: HEK293T (ATCC CRL-11268); conditions: DRD2 F1103.28A; for Ki: read-out: Ki
T5 sequence (P14416 whole entry F110A): as the sequence (P14416 whole entry) above, with F110A counted along it

DRD4 (D4.4 variant) [8] = target: T1, DRD4 (D4.4 variant); assay: Gαi/o-mediated cAMP inhibition (GloSensor); format: cell-based; conditions: DRD4; agonist, cAMP inhibition; read-out: EC50 ± SEM
DRD2 F1103.28A [9] = target: T5, DRD2 F1103.28A; assay: Gαi/o-mediated cAMP inhibition (GloSensor), mutant; format: cell-based; design: expressed in transfected cells; host or cells: HEK293T (ATCC CRL-11268)
DRD3 F1063.28A [10] = target: T4, DRD3 F1063.28A; assay: cell-based; format: cell-based; conditions: DRD3 F1063.28A; Tango; read-out: EC50 ± SEM
DRD2 F1103.28L [11] = target: T6, DRD2 F1103.28L (Homo sapiens, UniProt P14416, F110L); assay: Gαi/o-mediated cAMP inhibition (GloSensor), mutant; format: cell-based; conditions: DRD2 F1103.28L (b138 head prints DRD2 F1063.28L)
T6 construct: expressed in transfected cells; host or cells: HEK293T (ATCC CRL-11268)
T6 sequence (P14416 whole entry F110L): as the sequence (P14416 whole entry) above, with F110L counted along it

DRD2 F1103.28L [12] = target: T6, DRD2 F1103.28L; assay: β-arrestin2 recruitment (Tango), mutant; format: cell-based
DRD2 F1103.28A [13] = target: T5, DRD2 F1103.28A; assay: β-arrestin2 recruitment (Tango), mutant; format: cell-based; design: expressed in transfected cells; host or cells: HEK293T (ATCC CRL-11268)

Compound: CCOc1cccc2cc(C(C)NCC(C)(C)O)oc12 (racemic) [O4LE2]
EC50 (DRD4 (D4.4 variant) [1]): > 10 µM
EC50 (DRD2 (D2 long receptor) [2]): > 10 µM
Ki [3]: > 10 µM
EC50 (DRD2 (D2 long receptor) [4]; DRD2): > 10 µM
Ki [5]: > 10 µM
Ki (DRD3 F1063.28A [6]): > 10 µM
Ki (DRD3 wild-type): > 10 µM
EC50 (DRD3): > 10 µM
Ki (DRD2 F1103.28A [7]): > 10 µM
EC50 (DRD4 (D4.4 variant) [8]): > 10 µM

Compound: CCOc1cccc2cc(C(C)NCC3(O)CC3)oc12.Cl (racemic) [O4LE3]
EC50 (DRD4 (D4.4 variant) [1]): > 10 µM
Emax relative to quinpirole response (DRD2 (D2 long receptor) [2]): 9.29%
EC50 (DRD2 (D2 long receptor) [2]): 8.85 ± 2.62 µM
Ki [3]: > 10 µM
EC50 (DRD2 F1103.28A [9]): > 10 µM
EC50 (DRD3 F1063.28A [10]): > 10 µM
EC50 (DRD2 (D2 long receptor) [4]; DRD2): > 10 µM
EC50 (DRD2 F1103.28L [11]): > 10 µM
Ki [5]: > 10 µM
Ki (DRD3 F1063.28A [6]): > 10 µM
Ki (DRD3 wild-type): 4.37 µM
pKi ± SEM (DRD3 wild-type): 5.36±0.31
EC50 (DRD2 F1103.28L [12]): > 10 µM
EC50 (DRD2 F1103.28A [13]): > 10 µM
EC50 (DRD3): > 10 µM
Ki (DRD2 F1103.28A [7]): > 10 µM
EC50 (DRD4 (D4.4 variant) [8]): > 10 µM

Compound: CCOc1cccc2cc(C(C)NCCO)oc12 (stereo not shown) [O4LE1]
EC50 (DRD4 (D4.4 variant) [1]): > 10 µM
EC50 (DRD2 (D2 long receptor) [2]): > 10 µM
Ki [3]: > 10 µM
EC50 (DRD2 (D2 long receptor) [4]; DRD2): > 10 µM
Ki [5]: > 10 µM
Ki (DRD3 F1063.28A [6]): > 10 µM
Ki (DRD3 wild-type): > 10 µM
EC50 (DRD3): > 10 µM
Ki (DRD2 F1103.28A [7]): > 10 µM
EC50 (DRD4 (D4.4 variant) [8]): > 10 µM

EC50 (DRD4 (D4.4 variant) [1]): > 10 µM
Emax relative to quinpirole response (DRD2 (D2 long receptor) [2]): 83.11%
EC50 (DRD2 (D2 long receptor) [2]): 0.557 ± 0.129 µM
Response, Fig_S11c dose-response (DRD2 (D2 long receptor) [2]; Log[Drug] -6.52): 31.2199 and 46.2944 and 28.6852
Ki [3]: 2.04 µM
pKi ± SEM ([3]; DRD2 wild-type): 5.69±0.06
EC50 (DRD2 (D2 long receptor) [4]; DRD2): 0.0464 ± 0.0155 µM
Emax relative to quinpirole response (DRD2 (D2 long receptor) [4]; DRD2, cAMP inhibition): 96.65%
Response, Fig_S11b dose-response (DRD2 (D2 long receptor) [4]; Log[Drug] -11): 6.507 and 4.611
Ki [5]: > 10 µM
Ki (DRD3 wild-type): 0.85 µM
pKi ± SEM (DRD3 wild-type): 6.07±0.01
EC50 (DRD3): > 10 µM
pKi ± SEM (DRD2 F1103.28A [7]): 6.53±0.31
Ki (DRD2 F1103.28A [7]): 0.3 µM
EC50 (DRD4 (D4.4 variant) [8]): > 10 µM
Compound: CCCCOc1cccc2cc(C(C)NCC3(O)CCCCC3)oc12.Cl (stereo not shown) [O6LE6]
response, Fig_S11c dose-response source data (DRD2 (D2 long receptor) [2]; Fig_S11c, Log[Drug] -5, replicate values): 102.612 and 76.914 and 118.815 and 128.686 and 107.344 and 93.7459 and 91.4018 and 94.1354
Response, Fig_S11c dose-response (DRD2 (D2 long receptor) [2]; Log[Drug] -7): 11.3874 and 10.0089 and 10.6537 and 8.17 and 16.7384 and 23.3506 and 16.3825 and 16.4206 and 21.2486
Response, Fig_S11c dose-response (DRD2 (D2 long receptor) [2]; Log[Drug] -7.52): 2.983 and 1.764 and 4.002 and -3.309 and -7.696 and -0.6325 and 11.3698 and 6.994 and 12.6997
Response, Fig_S11c dose-response (DRD2 (D2 long receptor) [2]; Log[Drug] -8): 3.216 and 0.7671 and -0.1186 and 4.58 and -7.813 and 8.0383 and 4.755 and 0.516 and 2.286
Response, Fig_S11c dose-response (DRD2 (D2 long receptor) [2]; Log[Drug] -8.52): 2.679 and 1.071 and -1.473 and 0.4627 and -3.045 and 4.511 and 0.1556 and -1.011
Response, Fig_S11c dose-response (DRD2 (D2 long receptor) [2]; Log[Drug] -9): 0.7411 and 0.1816 and 1.971 and -2.53 and -2.659 and 6.978 and 2.24 and -0.7813 and 0.4791
Response, Fig_S11c dose-response (DRD2 (D2 long receptor) [2]; Log[Drug] -9.52): 1.675 and 0.3261 and 1.23 and 1.988 and 0.5154 and 6.132 and 2.922 and -0.3739 and -1.362
Response, Fig_S11c dose-response (DRD2 (D2 long receptor) [2]; Log[Drug] -10): 0.7745 and 3.454 and 0.4706 and -6.955 and -3.6985 and -1.1362 and 1.072 and 0.3907 and -1.333
Response, Fig_S11c dose-response (DRD2 (D2 long receptor) [2]; Log[Drug] -10.52): 0.1927 and 0.4854 and 0.3409 and -1.124 and 8.703 and 5.11 and 0.478 and 0.806 and 3.44
Response, Fig_S11c dose-response (DRD2 (D2 long receptor) [2]; Log[Drug] -11): 0.4891 and -0.1075 and 0.05188 and -6.3018 and 5.0836 and -3.93 and -2.3709 and 4.648 and -1.497
Response, Fig_S11c dose-response (DRD2 (D2 long receptor) [2]; Log[Drug] -11.52): 2.264 and 2.713 and 0.6374 and -3.324 and 3.804 and -6.217 and 0.5754 and 2.325 and 0.9369
Response, Fig_S11c dose-response (DRD2 (D2 long receptor) [2]; Log[Drug] -12): 0.04817 and -0.3928 and 5.406 and 4.214 and -4.302 and -2.66 and 3.553 and -0.8933
Response, Fig_S11b dose-response (DRD2 (D2 long receptor) [4]; Log[Drug] -5): 81.0159 and 81.9991 and 95.2013 and 90.5911 and 100.378 and 91.8314 and 90.3639 and 94.9855 and 86.3213
Response, Fig_S11b dose-response (DRD2 (D2 long receptor) [4]; Log[Drug] -5.52): 88.5768 and 95.2247 and 77.4579 and 98.4012 and 97.1899 and 97.626 and 96.6191 and 98.263 and 92.5248
Response, Fig_S11b dose-response (DRD2 (D2 long receptor) [4]; Log[Drug] -6): 91.3624 and 86.7743 and 72.7996 and 95.3198 and 99.2054 and 99.6124 and 91.2428 and 94.603 and 88.8234
Response, Fig_S11b dose-response (DRD2 (D2 long receptor) [4]; Log[Drug] -6.52): 80.2434 and 83.1695 and 87.1255 and 85.3392 and 85.0097 and 83.4496 and 88.4512 and 85.5769 and 83.1472
Response, Fig_S11b dose-response (DRD2 (D2 long receptor) [4]; Log[Drug] -7): 58.0056 and 50.7491 and 42.2987 and 73.1202 and 72.0543 and 69.6996 and 76.9851 and 77.9363 and 79.6216
Response, Fig_S11b dose-response (DRD2 (D2 long receptor) [4]; Log[Drug] -7.52): 45.2247 and 26.7088 and 25.0468 and 53.9826 and 53.3236 and 57.1802 and 56.5964 and 48.0046 and 46.7638
Response, Fig_S11b dose-response (DRD2 (D2 long receptor) [4]; Log[Drug] -8): 27.6217 and 13.9045 and 1.873 and 27.4516 and 30.7752 and 36.8798 and 38.172 and 42.1216 and 42.4628
Response, Fig_S11b dose-response (DRD2 (D2 long receptor) [4]; Log[Drug] -8.52): 12.8745 and -2.8324 and -17.6966 and 25 and 13.7985 and 29.6899 and 21.5778 and 11.2386 and 28.598
Response, Fig_S11b dose-response (DRD2 (D2 long receptor) [4]; Log[Drug] -9): 19.5459 and 15.9176 and 4.8221 and 21.5698 and 25.5426 and 29.7481 and 11.342 and 13.0583 and 27.4194
Response, Fig_S11b dose-response (DRD2 (D2 long receptor) [4]; Log[Drug] -11.52): 28.839 and 31.7182 and 13.2022 and 1.376 and -1.3857 and 16.4244 and 10.2357 and 2.895 and 29.146
Response, Fig_S11b dose-response (DRD2 (D2 long receptor) [4]; Log[Drug] -12): 23.5955 and 3.886 and -4.2135 and -2.9264 and -5.2713 and 2.829 and 6.638 and 20.6162
